biological target: T1, Ba/F3 cell EGFR Exon20 ins NPH (Homo sapiens, UniProt P00533, INS773NPH); assay: Ba/F3 cell proliferation suppression, EGFR Exon20 ins NPH; type: cell-based; details: GI50 class; Ba/F3 cell line with NPH inserted at Exon20 of EGFR; 72 hours
T1 construct: expressed in transfected cells; host or cells: Ba/F3
Outline: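 After 72 h compound exposure (twelve 3-fold steps, 0.3 nM–50 um final), live cells were measured by CellTiter-Glo luminescence and growth expressed as % of control to derive GI50. Cells were seeded at 3000–5000 per well a day earlier; Ba/F3 medium contained IL-3; three repeats.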

Ba/F3 (NPH) Activity	SMILES
C (500 nM ≤ GI50 < 5000 nM)	C=CC(=O)Nc1cc(Nc2cc(N3OCC[C@@H]3c3ccc(C)nc3)ncn2)c(OC)cc1N1CCN(C2CC2)CC1 [Example 46, N-(2-(4-cyclopropylpiperazine-1-yl)-4-methoxy-5-((6-((R)-3-(6-methylpyridine-3-yl)isoxazolidine-2-yl)pyrimidine-4-yl)amino)phenyl) acrylamide]
A (GI50 < 50 nM)	C=CC(=O)Nc1cc(Nc2cc(N3OCC[C@@H]3Cc3cccc(Cl)c3F)ncn2)c(OC)cc1N1CCC(N2CCN(C3CC3)[C@@H](C)C2)CC1 [compound 1018, N-(5-((6-((S)-3-(3-chloro-2-fluorobenzyl)isoxazolidine-2-yl)pyrimidine-4-yl)amino)-2-(4-((S)-4-cyclopropyl-3-methylpiperazine-1-yl)piperidine-1-yl)-4-methoxyphenyl) acrylamide]
A (GI50 < 50 nM)	C=CC(=O)Nc1cc(Nc2cc(N3OCC[C@@H]3c3ccc(F)c(F)c3F)ncn2)c(OC)cc1N1CCC(N2CCN(C)CC2)CC1 [compound 620, N-(4-methoxy-2-(4-(4-methylpiperazine-1-yl)piperidine-1-yl)-5-((6-((R)-3-(2,3,4-trifluorophenyl)isoxazolidine-2-yl)pyrimidine-4-yl)amino)phenyl)acrylamide]
C (500 nM ≤ GI50 < 5000 nM)	C=CC(=O)Nc1cc(Nc2cc(N3OCC[C@H]3c3cc(F)cc(F)c3)ncn2)c(OC)cc1N1CCC(N2CCN(C3CC3)CC2)CC1 [Example 118]
A (GI50 < 50 nM)	C=CC(=O)Nc1cc(Nc2cc(N3OCC[C@@H]3c3cccc(C(F)(F)F)c3)ncn2)c(OC)cc1N1CCC(N2CCN(C3CC3)[C@H](C)C2)CC1 [compound 942, N-(2-(4-((R)-4-cyclopropyl-3-methylpiperazine-1-yl)piperidine-1-yl)-4-methoxy-5-((6-((R)-3-(3-(trifluoromethyl)phenyl)isoxazolidine-2-yl)pyrimidine-4-yl)amino)phenyl) acrylamide]
A (GI50 < 50 nM)	C=CC(=O)Nc1cc(Nc2cc(N3OCC[C@@H]3c3cc(F)ccc3F)ncn2)c(OC)cc1N1CCC(N2CCC3(CC2)CC3)CC1 [compound 828, N-(2-(4-(6-azaspiro[2.5]octan-6-yl)piperidine-1-yl)-5-((6-((R)-3-(2,5-difluorophenyl)isoxazolidine-2-yl)pyrimidine-4-yl)amino)-4-methoxyphenyl) acrylamide]
B (50 nM ≤ GI50 < 500 nM)	C=CC(=O)Nc1cc(Nc2cc(N3OCC[C@@H]3c3ccc(C)nc3)ncn2)c(OC)cc1N1CCC(N2CCN(CC)CC2)CC1 [Example 41, N-(2-(4-(4-ethylpiperazine-1-yl)piperidine-1-yl)-4-methoxy-5-((6((R)-3-(6-methylpyridine-3-yl)isoxazolidine-2-yl)pyrimidine-4-yl)amino)phenyl) acrylamide]
A (GI50 < 50 nM)	C=CC(=O)Nc1cc(Nc2cc(N3OCC[C@@H]3c3cc(F)cc(Cl)c3)ncn2)c(OC)cc1N1CCC(N2CCO[C@H](C)C2)CC1 [compound 596, N-(5-((6-((R)-3-(3-chloro-5-fluorophenyl)isoxazolidine-2-yl)pyrimidine-4-yl)amino)-4-methoxy-2-(4-((R)-2-methylmorpholino)piperidine-1-yl)phenyl)acrylamide]
A (GI50 < 50 nM)	C=CC(=O)Nc1cc(Nc2cc(N3OCC[C@@H]3c3cccc(Cl)c3Cl)ncn2)c(OC)cc1N1CCC(N2CCN(C(C)=O)CC2)CC1 [compound 608, N-(2-(4-(4-acetylpiperazine-1-yl)piperidine-1-yl)-5-((6-((R)-3-(2,3-dichlorophenyl)isoxazolidine-2-yl)pyrimidine-4-yl)amino)-4-methoxyphenyl) acrylamide]
A (GI50 < 50 nM)	C=CC(=O)Nc1cc(Nc2cc(N3OCC[C@@H]3c3cccc(Cl)c3F)ncn2)c(OC)cc1N1CCC(N2CC[C@@H](N(C)C)C2)CC1 [compound 914, N-(5-((6-((R)-3-(3-chloro-2-fluorophenyl)isoxazolidine-2-yl)pyrimidine-4-yl)amino)-2-(4-((R)-3-(dimethylamino)pyrolidine-1-yl)piperidine-1-yl)-4-methoxyphenyl) acrylamide]
A (GI50 < 50 nM)	C=CC(=O)Nc1cc(Nc2cc(N3OCC[C@@H]3Cc3cccc(F)c3)ncn2)c(OC)cc1N1CCC(N2CCN(C3CC3)[C@H](C)C2)CC1 [compound 994, N-(2-(4-((R)-4-cyclopropyl-3-methylpiperazine-1-yl)piperidine-1-yl)-5-((6-((S)-3-(3-fluorobenzyl)isoxazolidine-2-yl)pyrimidine-4-yl)amino)-4-methoxyphenyl) acrylamide]
A (GI50 < 50 nM)	C=CC(=O)Nc1cc(Nc2cc(N3OCC[C@@H]3c3cc(F)ccc3F)ncn2)c(OC)cc1N1CCC(N(C)C)CC1 [compound 819, N-(5-((6-((R)-3-(2,5-difluorophenyl)isoxazolidine-2-yl)pyrimidine-4-yl)amino)-2-(4-(dimethylamino)piperidine-1-yl)-4-methoxyphenyl) acrylamide]
B (50 nM ≤ GI50 < 500 nM)	C=CC(=O)Nc1cc(Nc2cc(N3OCC[C@@H]3c3ccc4ccccc4c3)ncn2)c(OC)cc1N1CCC(N2CCOCC2)CC1 [compound 555, N-(4-methoxy-2-(4-morpholinopiperidine-1-yl)-5-((6-((R)-3-(naphthalene-2-yl)isoxazolidine-2-yl)pyrimidine-4-yl)amino)phenyl)acrylamide]
A (GI50 < 50 nM)	C=CC(=O)Nc1cc(Nc2cc(N3OCC[C@@H]3c3cc(F)cc(F)c3)ncn2)c(OC)cc1N1CCC(N2C[C@@H](C)N(CC)[C@@H](C)C2)CC1 [compound 827, N-(5-((6-((R)-3-(3,5-difluorophenyl)isoxazolidine-2-yl)pyrimidine-4-yl)amino)-2-(4-((3S,5R)-4-ethyl-3,5-dimethylpiperazine-1-yl)piperidine-1-yl)-4-methoxyphenyl) acrylamide]
A (GI50 < 50 nM)	C=CC(=O)Nc1cc(Nc2cc(N3OCC[C@@H]3c3cc(F)cc(F)c3)ncn2)c(OC)cc1N1CCC(N2CCN(C3CCC3)CC2)CC1 [Example 68, N-(2-(4-(4-cyclobutylpiperazine-1-yl)piperidine-1-yl)-5-((6-((R)-3-(3,5-difluorophenyl)isoxazolidine-2-yl)pyrimidine-4-yl)amino)-4-methoxyphenyl) acrylamide]
A (GI50 < 50 nM)	C=CC(=O)Nc1cc(Nc2cc(N3OCC[C@@H]3c3cccc(C#N)c3)ncn2)c(OC)cc1N1CCC(N2CCN(C3COC3)CC2)CC1 [Example 196, N-(5-((6-((R)-3-(3-cyanophenyl)isoxazolidine-2-yl)pyrimidine-4-yl)amino)-4-methoxy-2-(4-(4-(oxetane-3-yl)piperazine-1-yl)piperidine-1-yl)phenyl)acrylamide]
A (GI50 < 50 nM)	C=CC(=O)Nc1cc(Nc2cc(N3OCC[C@@H]3c3cccc(Cl)c3F)ncn2)c(OC)cc1N1CCC(N2CCOCC2)CC1 [compound 788, N-(5-((6-((R)-3-(3-chloro-2-fluorophenyl)isoxazolidine-2-yl)pyrimidine-4-yl)amino)-4-methoxy-2-(4-morpholinopiperidine-1-yl)phenyl)acrylamide]
A (GI50 < 50 nM)	C=CC(=O)Nc1cc(Nc2cc(N3OCC[C@@H]3c3ccc(Cl)cc3F)ncn2)c(OC)cc1N(C)CCN(C)C [compound 371, N-(5-((6-((R)-3-(4-chloro-2-fluorophenyl)isoxazolidine-2-yl)pyrimidine-4-yl)amino)-2-((2-(dimethylamino)ethyl)(methyl)amino)-4-methoxyphenyl) acrylamide]
A (GI50 < 50 nM)	C=CC(=O)Nc1cc(Nc2cc(N3OCC[C@@H]3c3cccc(Cl)c3C)ncn2)c(OC)cc1N1CCN(CC)CC1 [compound 585, N-(5-((6-((R)-3-(3-chloro-2-methylphenyl)isoxazolidine-2-yl)pyrimidine-4-yl)amino)-2-(4-ethylpiperazine-1-yl)-4-methoxyphenyl) acrylamide]
A (GI50 < 50 nM)	C=CC(=O)Nc1cc(Nc2cc(N3OCC[C@@H]3c3ccc(F)cc3F)ncn2)c(OC)cc1N1CCN(C2COC2)CC1 [compound 383, N-(5-((6-((R)-3-(2,4-difluorophenyl)isoxazolidine-2-yl)pyrimidine-4-yl)amino)-4-methoxy-2-(4-(oxetane-3-yl)piperazine-1-yl)phenyl)acrylamide]
A (GI50 < 50 nM)	C=CC(=O)Nc1cc(Nc2cc(N3OCC[C@@H]3c3ccc(F)cc3)ncn2)c(OC)cc1N1CCC(N2CCN(C3CCC3)CC2)CC1 [Example 76, N-(2-(4-(4-cyclobutylpiperazine-1-yl)piperidine-1-yl)-5-((6-((R)-3-(4-fluorophenyl)isoxazolidine-2-yl)pyrimidine-4-yl)amino)-4-methoxyphenyl) acrylamide]
A (GI50 < 50 nM)	C=CC(=O)Nc1cc(Nc2cc(N3OCC[C@@H]3c3cccc(Cl)c3F)ncn2)c(OC)cc1N1CCC(N2CCN(C3CC3)C[C@@H]2C)CC1 [Example 150, N-(5-((6-((R)-3-(3-chloro-2-fluorophenyl)isoxazolidine-2-yl)pyrimidine-4-yl)amino)-2-(4-((S)-4-cyclopropyl-2-methylpiperazine-1-yl)piperidine-1-yl)-4-methoxyphenyl) acrylamide]
A (GI50 < 50 nM)	C=CC(=O)Nc1cc(Nc2cc(N3OCC[C@@H]3Cc3ccccc3)ncn2)c(OC)cc1N1CCN(C(C)=O)CC1 [compound 948, N-(2-(4-acetylpiperazine-1-yl)-5-((6-((S)-3-benzylisoxazolidine-2-yl)pyrimidine-4-yl)amino)-4-methoxyphenyl) acrylamide]
A (GI50 < 50 nM)	C=CC(=O)Nc1cc(Nc2cc(N3OCC[C@@H]3c3cc(F)ccc3F)ncn2)c(OC)cc1N1CCC(N2CCN(C3CCC3)CC2)CC1 [Example 77, N-(2-(4-(4-cyclobutylpiperazine-1-yl)piperidine-1-yl)-5-((6-((R)-3-(2,5-difluorophenyl)isoxazolidine-2-yl)pyrimidine-4-yl)amino)-4-methoxyphenyl) acrylamide]
